Holding throughout (assay type): cell-based
Assay [1] deals with T1, GPR55 (Homo sapiens, UniProt Q9Y2T6). The assay is described as follows: Real-time receptor internalization (TR-FRET), concentration-response. The note with it: receptor GPR55; mean, SEM and n (3-4); read-out: Internalization assays pEC50 (converted). Further details: hIL-2Ra signal peptide (N); expressed in transfected cells. On the procedure:
(§1) 48 hr prior to parallel assaying, SNAP-tagged oGPCR cells were plated (10,000 cells/well) in fibronectin-coated 384-well Epic biosensor microplates (Corning) and poly-D-lysine coated white 384-well plates (for internalization assays). SNAP- GLP-1 receptor was plated alongside orphan receptor cells as an internal assay control for internalization assays. Receptor-expression was induced with 0.1 μg/ml doxycycline.
A TR-FRET real-time internalization assay was used to examine peptide-dependent changes in orphan receptor localization as described previously ([Foster and Bräuner-Osborne, 2018]). Surface-expressed SNAP-tagged receptors were labeled with a cell-impermeable luminescent terbium cryptate (100 nM SNAP Lumi4-Tb; Cisbio, France) for 1 hr at 37°C. Cells were washed to remove excess terbium and incubated with fluorescein-O-acetic acid (100 μM; Sigma Aldrich) for 5 min at 37°C. Peptides were added as for DMR assays, and internalization responses were recorded for 60 min at 37°C using an EnVision 2104 Multimode plate reader (PerkinElmer). 100 nM GLP-1 was used as a positive control for SNAP-GLP1R internalization. Real-time internalization responses were calculated based on TR-FRET (excitation 340 nm; emission 520 nm and 615 nm), and were expressed as the ratio between donor (terbium) and acceptor (fluorescein) emission. For peptide screening analysis (both DMR and internalization assays), we calculated the area under the curve from the real-time traces. […] Validation experiments for receptor internalization were performed as above. Internalization data was processed in MS-Excel and area under the curve was used to generate concentration-response curves using GraphPad Prism 7.0. Data represent mean ± standard error of the mean (SEM) from at least 3 biologically independent experiments.
(In general: TR-FRET usually uses a lanthanide donor and a delayed reading to cut background.)

Assay [2] concerns the target T1, GPR55. In words: Dynamic mass redistribution (DMR), concentration-response. Further details: hIL-2Ra signal peptide (N); expressed in transfected cells. The following applies: receptor GPR55; mean, SEM and n (2-4); read-out: DMR assays pEC50 (converted). As for the experimental part: as §1
DMR assays provide a single integrated readout of ligand-dependent cellular response, utilizing an optical biosensor in specialized microplates to detect wavelength shifts of reflected light as it passes through the biosensor and the lower portion of the cell (∼150-200 nm). As a signal pathway agnostic approach, DMR assays are well-suited to the study of GPCRs ([Fang et al., 2008], [Schröder et al., 2011]). The mass redistribution response (Δ picometer (pm)) likely reflects a number of intracellular events, including cytoskeletal rearrangement, protein trafficking and receptor internalization. Orphan receptor-expressing cells were gently washed twice with assay buffer (HBSS with 1 mM CaCl2, 1 mM MgCl2, 20 mM HEPES, 0.01% pluronic F-68, pH 7.4) containing 0.1% DMSO and cells were equilibrated for 90 min at 22°C in the EPIC Benchtop (BT) System (Corning) to establish a stable DMR signal. After 3-5 min baseline recordings, peptides (10 μM) were added in duplicate wells using an electronic 384-channel Viaflo pipette (Integra Biosciences, Switzerland) and DMR responses were measured for 60 min at 22°C. 100 nM norepinephrine was included as an internal assay control to assess the cellular DMR response via endogenously-expressed adrenoceptors in the TREx 293 cells. Real-time data were processed using the BT to column converter MS-Excel macro (Corning) and analyzed in GraphPad Prism 7.0. DMR recordings in peptide screening experiments were buffer and solvent corrected and the area under the curve (AUC) was quantified. For subsequent validation experiments, peptides were diluted in assay buffer containing 0.1% DMSO and DMR assays were performed as above. […] Data represent mean ± standard error of the mean (SEM) from at least 3 biologically independent experiments.

Assay [3] concerns the target T2, BB3 (Homo sapiens, UniProt P32247).
T2 construct: hIL-2Ra signal peptide (N); expressed in transfected cells
T2 sequence (P32247 2-399 limits assumed): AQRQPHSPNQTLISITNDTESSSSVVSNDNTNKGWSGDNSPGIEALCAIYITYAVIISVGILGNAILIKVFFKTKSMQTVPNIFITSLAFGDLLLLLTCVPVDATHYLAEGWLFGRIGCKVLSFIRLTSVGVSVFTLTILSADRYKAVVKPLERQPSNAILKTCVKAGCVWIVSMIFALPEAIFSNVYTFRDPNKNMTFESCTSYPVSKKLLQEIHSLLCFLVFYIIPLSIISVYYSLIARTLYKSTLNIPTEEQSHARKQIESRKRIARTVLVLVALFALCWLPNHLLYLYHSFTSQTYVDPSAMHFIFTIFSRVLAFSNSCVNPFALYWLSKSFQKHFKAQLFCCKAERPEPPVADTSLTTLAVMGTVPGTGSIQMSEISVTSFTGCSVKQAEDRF
The description is as above.

Assay [4] addresses T2, BB3. The assay is described as follows: Real-time receptor internalization (TR-FRET), concentration-response.
The target of assay [5] is T2, BB3. The assay is described as follows: IP1 accumulation (Gq/11), HTRF.
Another assay deals with T3, GPR1 (Homo sapiens, UniProt P46091).
T3 sequence (P46091 1-355): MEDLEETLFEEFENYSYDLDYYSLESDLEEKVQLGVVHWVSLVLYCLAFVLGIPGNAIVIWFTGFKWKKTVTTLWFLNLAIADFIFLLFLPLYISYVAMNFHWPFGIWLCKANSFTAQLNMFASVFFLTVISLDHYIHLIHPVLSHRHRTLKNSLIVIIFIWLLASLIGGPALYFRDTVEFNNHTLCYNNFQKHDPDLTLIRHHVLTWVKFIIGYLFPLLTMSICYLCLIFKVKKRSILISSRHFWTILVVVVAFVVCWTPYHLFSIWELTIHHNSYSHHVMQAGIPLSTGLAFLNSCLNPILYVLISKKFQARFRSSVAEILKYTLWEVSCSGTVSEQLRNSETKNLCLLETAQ
The assay is described as follows: β-arrestin recruitment (PathHunter). The note with it: receptor GPR1; mean, SEM and n (2-3); read-out: b-arrestin recruitment assays (PathHunter) pEC50 (converted). On the procedure:
PathHunter eXpress Assays (DiscoverX) were performed in 384-well format according to the manufacturer’s recommendations. GPR1 cells were incubated with peptides for 90 min and luminescence measured using an EnSpire 2300 Multimode plate reader (PerkinElmer).
For orientation: Recruitment of arrestin is a read-out of receptor activation apart from second messengers.

The mark [6] stands for this setting: receptor BB3, mean, SEM and n (3).

Residues, ends and D or L forms follow the SMILES beside them.

T1 sequence (Q9Y2T6 2-319 limits assumed): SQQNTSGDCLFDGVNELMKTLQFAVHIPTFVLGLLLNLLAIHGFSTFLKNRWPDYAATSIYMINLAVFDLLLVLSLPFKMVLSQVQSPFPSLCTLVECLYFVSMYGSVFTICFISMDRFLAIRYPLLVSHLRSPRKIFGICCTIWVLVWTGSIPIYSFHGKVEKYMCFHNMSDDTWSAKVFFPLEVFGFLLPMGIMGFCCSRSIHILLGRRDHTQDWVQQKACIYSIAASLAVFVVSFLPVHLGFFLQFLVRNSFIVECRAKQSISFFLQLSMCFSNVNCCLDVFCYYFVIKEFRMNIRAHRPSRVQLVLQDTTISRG

In the case of `CC[C@H](C)[C@H](NC(=O)[C@H](CC(=O)O)NC(=O)[C@@H](NC(=O)[C@H](Cc1ccc(O)cc1)NC(=O)[C@@H](NC(=O)CNC(=O)[C@H](CC(N)=O)NC(=O)[C@@H](NC(=O)[C@H](CC(C)C)NC(=O)[C@H](Cc1ccc(O)cc1)NC(=O)[C@H](CC(=O)O)NC(=O)[C@H](CC(C)C)NC(=O)[C@H](CCCNC(=N)N)NC(=O)[C@H](CO)NC(=O)[C@H](Cc1ccc(O)cc1)NC(=O)[C@H](CCCNC(=N)N)NC(=O)[C@@H](N)CCCCN)[C@@H](C)CC)[C@@H](C)CC)C(C)C)C(=O)O` [114 resynthesized] (H-KRYSRLDYLINGIYVDI-OH), the EC50 was 15.8 µM at GPR55 [1] and 3.89 µM on GPR55 [2].

Take `CSCC[C@H](NC(=O)[C@H](Cc1ccccc1)NC(=O)CNC(=O)CNC(=O)[C@@H](N)Cc1ccc(O)cc1)C(=O)N[C@@H](CCCNC(=N)N)C(=O)N[C@@H](CCCNC(=N)N)C(=O)N[C@H](C(=O)NCC(=O)N[C@@H](CCCNC(=N)N)C(=O)N1CCC[C@H]1C(=O)N[C@@H](CCC(=O)O)C(=O)N[C@@H](Cc1c[nH]c2ccccc12)C(=O)N[C@@H](Cc1c[nH]c2ccccc12)C(=O)N[C@@H](CCSC)C(=O)N[C@@H](CC(=O)O)C(=O)N[C@@H](Cc1ccc(O)cc1)C(=O)N[C@@H](CCC(N)=O)C(=O)N[C@@H](CCCCN)C(=O)N[C@@H](CCCNC(=N)N)C(=O)N[C@@H](Cc1ccc(O)cc1)C(=O)NCC(=O)NCC(=O)N[C@@H](Cc1ccccc1)C(=O)N[C@@H](CC(C)C)C(=O)O)C(C)C` [158 resynthesized] (H-YGGFMRRVGRPEWWMDYQKRYGGFL-OH): the EC50 at BB3 [3] (DMR assays pEC50, receptor BB3, mean, SEM and n (3)) was 110 µM; on BB3 [4] (Internalization assays pEC50), 3.89 µM; at BB3 [5] (IP1 accumulation assays pEC50, receptor BB3, mean, SEM and n (2-4)), 3.72 µM.

As for `CC(C)C[C@H](NC(=O)[C@H](Cc1ccccc1)NC(=O)CNC(=O)CNC(=O)[C@@H](N)Cc1ccc(O)cc1)C(=O)O` [158.2 (Phoenix)], the EC50 is 0.245 µM at BB3 [3], 4.68 µM at BB3 [4] and 0.0158 µM at BB3 [5].

`CC(C)C[C@H](NC(=O)[C@H](CCCCN)NC(=O)[C@H](CCC(N)=O)NC(=O)[C@@H](NC(=O)[C@H](CCCCN)NC(=O)[C@H](CO)NC(=O)[C@H](Cc1ccc(O)cc1)NC(=O)[C@H](Cc1c[nH]cn1)NC(=O)[C@H](Cc1ccccc1)NC(=O)[C@H](CC(C)C)NC(=O)[C@@H](N)Cc1ccccc1)[C@@H](C)O)C(N)=O` [Neuromedin U pre-pro_(1-11)] (H-FLFHYSKTQKL-NH2): the EC50 was 2.29 µM at BB3 [3] (BB3, mean, SEM and n, read-out: pEC50, DMR (peak) (converted)); 31.6 µM at BB3 [4] (BB3, mean, SEM and n, read-out: pEC50, Internalization (AUC) (converted)); 2.19 µM at BB3 [5] (BB3, mean, SEM and n, read-out: pEC50, IP1 (converted)).

Turning to `CC(C)C[C@H](NC(=O)[C@H](CCCNC(=N)N)NC(=O)[C@@H](N)CCCCN)C(=O)NCC(=O)N[C@@H](CCC(=O)O)C(=O)N[C@@H](CC(C)C)C(=O)N[C@@H](Cc1ccccc1)C(=O)N[C@@H](CC(N)=O)C(=O)N1CCC[C@H]1C(=O)N[C@@H](Cc1ccc(O)cc1)C(=O)N[C@@H](Cc1ccc(O)cc1)C(=O)N[C@@H](CC(=O)O)C(=O)N1CCC[C@H]1C(=O)N[C@@H](CC(C)C)C(=O)N[C@@H](CCC(N)=O)C(=O)N[C@@H](Cc1c[nH]c2ccccc12)C(=O)N[C@@H](CCCCN)C(=O)N[C@@H](CO)C(=O)N[C@@H](CO)C(=O)N[C@@H](Cc1c[nH]cn1)C(=O)N[C@@H](Cc1ccccc1)C(=O)N[C@@H](CCC(=O)O)C(=O)O` [Peptide 143.1] (H-KRLGELFNPYYDPLQWKSSHFE-OH), at GPR55 [2], the EC50 was 25.1 µM.

For the molecule `CSCC[C@H](NC(=O)[C@H](Cc1c[nH]c2ccccc12)NC(=O)[C@H](Cc1c[nH]c2ccccc12)NC(=O)[C@H](CCC(=O)O)NC(=O)[C@@H]1CCCN1C(=O)[C@H](CCCNC(=N)N)NC(=O)CNC(=O)[C@@H](N)C(C)C)C(=O)N[C@@H](CC(=O)O)C(=O)N[C@@H](Cc1ccc(O)cc1)C(=O)N[C@@H](CCC(N)=O)C(=O)N[C@@H](CCCCN)C(=O)N[C@@H](CCCNC(=N)N)C(=O)N[C@@H](Cc1ccc(O)cc1)C(=O)NCC(=O)NCC(=O)N[C@@H](Cc1ccccc1)C(=O)N[C@@H](CC(C)C)C(=O)O` [Peptide 158.4] (H-VGRPEWWMDYQKRYGGFL-OH), the EC50 on BB3 [3] was 8.71 µM; on BB3 [4], 10.2 µM; at BB3 [5] it was 16.2 µM.

In the case of `CSCC[C@H](NC(=O)[C@H](Cc1c[nH]c2ccccc12)NC(=O)[C@H](Cc1c[nH]c2ccccc12)NC(=O)[C@H](CCC(=O)O)NC(=O)[C@@H]1CCCN1)C(=O)N[C@@H](CC(=O)O)C(=O)N[C@@H](Cc1ccc(O)cc1)C(=O)N[C@@H](CCC(N)=O)C(=O)N[C@@H](CCCCN)C(=O)N[C@@H](CCCNC(=N)N)C(=O)N[C@@H](Cc1ccc(O)cc1)C(=O)NCC(=O)NCC(=O)N[C@@H](Cc1ccccc1)C(=O)N[C@@H](CC(C)C)C(=O)O` [Peptide 158.6] (H-PEWWMDYQKRYGGFL-OH), the EC50 is 0.832 µM at BB3 [3], 9.55 µM on BB3 [4] and 31.6 µM at BB3 [5].

For `CSCC[C@H](NC(=O)[C@H](CC(C)C)NC(=O)[C@H](Cc1cnc[nH]1)NC(=O)CNC(=O)[C@@H](NC(=O)[C@H](C)NC(=O)[C@H](Cc1c[nH]c2ccccc12)NC(=O)[C@H](Cc1cnc[nH]1)NC(=O)[C@H](CC(N)=O)NC(=O)CN)C(C)C)C(N)=O` [Peptide 167.1], the EC50 on BB3 [3] (receptor BB3, mean, SEM and n (3), read-out: DMR assays pEC50 (converted)) was 0.49 µM; at BB3 [4] (receptor BB3, mean, SEM and n (3), read-out: Internalization assays pEC50 (converted)) it was 14.5 µM; on BB3 [5] (receptor BB3, mean, SEM and n (2-4), read-out: IP1 accumulation assays pEC50 (converted)) it was 2.51 µM; on GPR1 it was 22.9 µM.

As for FLFHYSKTQKL [67 original], at BB3 [3] (setting [6]), the “DMR assays Emax (peak or AUC)” value worked out at 199. Moreover, the “Internalization assays Emax (AUC)” value at BB3 [4] (setting [6]) turned out to be 14.6. Further, at BB3 [5] (receptor BB3, mean, SEM and n (2-4)), the “IP1 accumulation assays Emax” value amounted to 62.1 nM.

These data come from publication PMC6838683, “Discovery of Human Signaling Systems: Pairing Peptides to G Protein-Coupled Receptors” (Cell, 2019).
